Measured values published in patent US20140364454A1, “METAL-CHELATING COMPOUNDS HAVING AT LEAST ONE POLYAMINO CHAIN” (UNIVERSITE DE RENNES I, priority 2011, published 2014).
Read-outs that look alike come from different tables or passages of the source.

Columns and labels:
[1] = test system: mutant cell line CHO-MG without PTS; test: Anti-proliferative effect on CHO-MG cells without PTS, counting of cell nuclei; assay type: cell-based, hamster; details: for IC50: 72 h treatment; for Ratio IC50 (CHO-MG/CHO): selectivity of recognition by the PTS
Source text: The IC50 inhibitor concentration corresponding to the concentration in Quilamines enables the inhibition at 50% of the cell proliferation was deduced from the dose-effect curves of numeration of the nuclei of the living cells on the CHO and CHO-MG cell lines. These dose-effect curves are sometimes bi-phase curves as in the case of Quilamine HQ1-44 which has an anti-proliferative constituent (without concomitant release of LDH in supernatant) in the range of concentrations of 0.4 to 3 micromoles per liter and a second cytotoxic constituent accompanied by membrane toxicity expressed by the release of LDH for concentrations of over […]. The lower the value of IC50, the greater the efficiency of the anti-proliferative effect of the tested chelators.
Furthermore, the ratio of the IC50 inhibitor concentrations found for the CHO-MG and the CHO cell lines (Ratio IC50 (CHO-MG/CHO)) was computed for several Quilamines according to the invention. This ratio makes it possible to estimate the selectivity of recognition of the different chelators by the PTS: the higher the ratio, the more clearly is the chelator recognized by the PTS. When this ratio is close to 1, the tested chelator is not recognized or is little recognized by the PTS.

HepG2 cells [2] = test: Cytotoxic effect on HepG2 cells, LDH release; assay type: cell-based, human; details: for influence of exogenous iron on the cytotoxic effect: HepG2, presence of exogenous iron
Description: (§1) The implication of PTS in the cytostatic and cytotoxic action of Quilamines was analyzed in proliferating HepG2 hepatocyte tumor cells after activation of PTS or competitive inhibition of PTS by spermidine, a polyamine naturally present in the organism and most efficaciously captured by the PTS. The conditions of treatment by Quilamines are identical to those described in paragraph III-1.
(§2) Inhibiting ornithine decarboxylase (ODC), the key enzyme in the biosynthesis of polyamines, causes a depletion of intra-cell polyamines and an activation of PTS which enables the deficiency to be met. This activation of PTS is done by means of the ODC inhibitor, alpha-difluoromethyl ornithine (DFMO).
(§3) The competitive inhibition of PTS by spermidine is prompted by the co-treatment of the cells by the Quilamines in the presence of spermidine, in a concentration of 50 micromoles per liter.

[3] = test system: ODC, OAZ1, SAMDC and PAO genes; test: RT-qPCR of polyamine metabolism genes in Caco-2 cells; assay type: cell-based, human; details: proliferating Caco-2, 10 micromoles per liter, 72 hours
Description: After treatment for 72 hours of the Caco-2 cells, in proliferative phase by Quilamine HQ1-44 and ICL670 in a concentration of 10 micromoles per liter, an analysis is carried by RT-qPCR of the expression of the main genes for regulating the metabolism of polyamines, such as ornithine decarboxylase (ODC), antizyme (OAZ1), S-adenosyl methionine decarboxylase (SAMDC) and polyamine oxydase (PAO).

Caco-2 cells [4] = test: LC/MSMS of intra-cell polyamines in Caco-2 cells; assay type: cell-based, human; details: proliferating Caco-2, 10 micromoles per liter, 72 hours
Description: After treatment for 72 hours of the Caco-2 cells, in proliferative phase by Quilamine HQ1-44 and ICL670 in a concentration of 10 micromoles per liter, a biochemical analysis is carried out by tandem mass spectrometry coupled with liquid chromatography (LC/MSMS) of the intra-cell polyamines such as putrescine, spermidine and spermine, after dansylation.

HepG2 cells [5] = test: Anti-proliferative effect on HepG2 cells (nuclei count or SDH activity); assay type: cell-based, human; details: for IC50: Homo sapiens, HepG2, absence of exogenous iron, read-out: IC50 associated with the cytostatic effect; for IC50 / % of HepG2 cells concerned by the anti-proliferative effect: 72 h; for % of HepG2 cells concerned by the anti-proliferative effect: absence of exogenous iron
Source text: The majority of the Quilamines, like ICL670, show biphase dose-effect curves in the absence of exogenous iron, with an anti-proliferative constituent for concentration values of 1 to 10 micromoles per liter and a cytotoxic constituent associated with a release of LDH for concentration values of over 10 micromoles per liter. The percentage of HepG2 cells concerned by the anti-proliferative effect and the values of IC50 associated with this cytostatic effect in the absence of exogenous iron were listed in the table 4 below.
as §1, §2, §3

Caco-2 cells [6] = test: LDH release of Caco-2 cells; assay type: cell-based, human; details: for influence of exogenous iron on the cytotoxic effect: Caco-2, after addition of exogenous iron; for % LDH/control 10 μM: Caco-2 J4, 10 μM; for % LDH/control 100 μM: Caco-2 J4, 100 μM
Description: (§4) The action of Quilamines on the cell viability was analyzed on enterocyte cells of the Caco-2 tumor cell line derived from human colon carcinoma and compared with the action of ICL670 in the presence or absence of exogenous iron, after activation (DFMO) or competitive inhibition by spermidine, of the PTS. The operating conditions used are identical to those used for CHO/CHO-MG and HepG2 cells.
As in the case of the other cell lines in proliferative phase presented here above, the dose-effect curves of the action of the Quilamines on the number of viable cells (number of nuclei) are biphase curves with a cytostatic constituent for concentration values of below 30 micromoles per liter and a cytotoxic constituent with release of LDH for concentration values above 30 micromoles per liter. Only this second cytotoxic constituent is observed when the cells of the Caco-2 cell line are treated after confluence (stopping of the proliferation).

Caco-2 cells [7] = test: Cell viability of proliferating Caco-2 cells (number of nuclei); assay type: cell-based, human; details: for Constituent 1 (1-10 μM) % cell / Constituent 2 (10-100 μM) % cell: Caco-2 J4, no exogenous iron; for IC50: Homo sapiens, no exogenous iron
Description: as §4
The results for the measurement of the anti-proliferative effect of Quilamines, and of ICL670 on the proliferating cells (cytostatic constituent) when there is no exogenous iron have been listed in the table 4 below.

[8] = test system: wild cell line (CHO) of hamster ovarian cells; test: Anti-proliferative effect on CHO cells, counting of cell nuclei (Hoechst 33342); assay type: cell-based; details: CHO
Description: The in vitro efficacy of different Quilamines was tested on a wild cell line (CHO) of hamster ovarian cells having PTS and a mutant cell line CHO-MG without PTS. The two cell types CHO and CHO-MG were treated, 24 hours after being seeded in 96-well microplates, by concentrations of different Quilamines ranging from 0.1 to 400 micromoles per liter. The cytostatic (anti-proliferative) effects and cytotoxic effects of Quilamine after 72 hours' treatment of the cells were assessed respectively by counting cell nuclei after DNA marking by the Hoechst 33342 fluorescent intercalant dye and by analysis of membrane damage detected by the dosing of the lactate dehydrogenase activity (LHD) in the supernatants.
The IC50 inhibitor concentration corresponding to the concentration in Quilamines enables the inhibition at 50% of the cell proliferation was deduced from the dose-effect curves of numeration of the nuclei of the living cells on the CHO and CHO-MG cell lines. […] The lower the value of IC50, the greater the efficiency of the anti-proliferative effect of the tested chelators.
A comparison was made of the cytostatic or anti-proliferative action and the cytotoxic action for 72 h of treatment by Quilamine HQ1-44 and 8-hydroxyquinoline and ICL670, on the CHO cell lines in the presence and without the presence of exogenous iron, in the form of Fe(III) citrate in a concentration of 20 micromoles per liter. The results obtained are shown in FIG. 4, FIG. 4A relating to the results on cell viability and FIG. 4B relating to the results on cell toxicity.

[9] = Caco-2 J4, cytostatic constituent, read-out: Constituent 1 (1-10 μM) IC50
[10] = Caco-2 J4, cytotoxic constituent, read-out: Constituent 2 (10-100 μM) IC50
[11] = Fe(III) citrate 20 micromoles per liter
[12] = 72 h treatment, no exogenous iron, read-out: IC50 CHO

Row | Compound | IC50 ([1]; CHO-MG, 72 h) | Ratio IC50 (CHO-MG/CHO) [1] | influence of exogenous iron on the cytotoxic effect (HepG2 cells [2]) | expression of the genes of polyamine metabolism (ODC, OAZ1, SAMDC, PAO) [3] | change of intra-cell concentration of putrescine (Put) (Caco-2 cells [4]) | change of intra-cell concentration of spermidine (Spd) (Caco-2 cells [4]) | IC50 (HepG2 cells [5]) | % of HepG2 cells concerned by the anti-proliferative effect (HepG2 cells [5]) | influence of exogenous iron on the cytotoxic effect (Caco-2 cells [6]) | % LDH/control 10 μM (Caco-2 cells [6]) | % LDH/control 100 μM (Caco-2 cells [6]) | Constituent 1 (1-10 μM) % cell (Caco-2 cells [7]) | Constituent 2 (10-100 μM) % cell (Caco-2 cells [7]) | IC50 (Caco-2 cells [7]; [9]) | IC50 (Caco-2 cells [7]; [10]) | influence of exogenous iron on the cytostatic (anti-proliferative) effect [8, 11] | IC50 [8, 12] | further results
1 | NCCCCNCCCCNCc1ccc2cccc(O)c2n1 [HQ1-44, 2-[4-(4-aminobutyl)aminobutyl]aminomethylquinolin-8-ol] | 344 µM | 249 | partially inhibited | no effect | −73% | −55% | 2.75 µM | 30% | partially inhibited | 118% | 287% | 70% | 30% | 1.3 µM | 20 µM | improvement | 1.4 µM | IC50 [1]: 344 µM; influence of PTS activation by DFMO pre-treatment on cytotoxicity (HepG2 cells [2]; HepG2, concentrations greater than 50 micromoles per liter (50-100)): amplification; influence of competitive inhibition of PTS by spermidine on the cytotoxic effects (HepG2 cells [2]; HepG2, spermidine 50 micromoles per liter, Quilamine 50 to 100 micromoles per liter): inhibition; effect on intra-cell spermine (Spm) (Caco-2 cells [4]): absence of an effect; influence of competitive inhibition of PTS by spermidine on the cytostatic effects (HepG2 cells [5]; HepG2, spermidine 50 micromoles per liter, Quilamine below 10 micromoles per liter): inhibition; IC50 ([8]; Fe(III) citrate 20 micromoles per liter, 72 h, read-out: IC50 CHO in the presence of exogenous iron): 0.6 µM
2 | O=C(O)c1ccc(-n2nc(-c3ccccc3O)nc2-c2ccccc2O)cc1 [ICL670, reference compound] | 8 µM | 1 | inhibition | no effect | −34% | −15% | 3.85 µM | 72.5% | inhibition | 117% | 130% | 18% | 82% | 1.7 µM | 90 µM | inhibition | 9.2 µM | concentration of the cytotoxic constituent associated with release of LDH (HepG2 cells [2]; HepG2, absence of exogenous iron): over 10 micromoles per liter; influence of exogenous iron on the cytostatic effect (Caco-2 cells [7]; Caco-2, after addition of exogenous iron): inhibition
